Common to all, as to assay type: biochemical
Assay [1] addresses T1, Recombinant human calpain I (Homo sapiens, UniProt P07384).
T1 construct: made in house
T1 sequence (P07384 1-714): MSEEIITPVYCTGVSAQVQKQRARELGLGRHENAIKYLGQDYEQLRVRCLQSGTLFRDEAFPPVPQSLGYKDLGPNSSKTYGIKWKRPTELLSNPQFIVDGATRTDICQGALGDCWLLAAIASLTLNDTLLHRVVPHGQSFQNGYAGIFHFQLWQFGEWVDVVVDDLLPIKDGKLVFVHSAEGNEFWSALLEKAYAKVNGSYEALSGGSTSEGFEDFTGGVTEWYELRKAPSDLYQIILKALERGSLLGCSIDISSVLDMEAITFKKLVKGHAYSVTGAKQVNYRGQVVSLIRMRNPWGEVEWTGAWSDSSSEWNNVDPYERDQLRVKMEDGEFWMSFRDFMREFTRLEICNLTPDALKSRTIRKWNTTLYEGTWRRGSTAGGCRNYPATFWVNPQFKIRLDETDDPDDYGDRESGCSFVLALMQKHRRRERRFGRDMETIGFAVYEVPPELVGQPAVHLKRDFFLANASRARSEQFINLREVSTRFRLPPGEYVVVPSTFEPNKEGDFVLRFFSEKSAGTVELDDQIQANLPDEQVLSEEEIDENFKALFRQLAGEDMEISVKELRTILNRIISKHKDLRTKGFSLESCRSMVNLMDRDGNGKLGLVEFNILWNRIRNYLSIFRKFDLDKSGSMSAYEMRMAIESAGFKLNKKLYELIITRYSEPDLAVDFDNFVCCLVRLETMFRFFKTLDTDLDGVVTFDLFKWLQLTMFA
Description: Rate of inactivation of calpain I (second order rate constant). Particulars: Table II, read-out: Calpain Inactivation Rates. As for the experimental part:
To evaluate inhibitory activity, stock solutions (40 times concentrated) of exemplary compounds of the invention were prepared in 100% anhydrous DMSO and 5 μL of each inhibitor preparation were aliquoted into each of three wells of a 96-well plate. Recombinant human calpain I, prepared by the method of Meyer et al. (Biochem. J. 314: 511-519 (1996)), was diluted into assay buffer (i.e., 50 mM Tris, 50 mM NaCl, 1 mM EDTA, 1 mM EGTA, and 5 mM-mercaptoethanol, pH 7.5 including 0.2 mM Succ-Leu-TyrMNA) and 175 μL aliquoted into the same wells containing the independent inhibitor stocks as well as to positive control wells containing 5 μL DMSO, but no compound. To start the reaction, 20 μL of 50 mM CaCl2 in assay buffer was added to all wells of the plate, excepting three, which were used as background signal baseline controls. Substrate hydrolysis was monitored every 5 minutes for a total of 30 minutes. Substrate hydrolysis in the absence of inhibitor was linear for up to 15 minutes.
Inhibition of calpain I activity was calculated as the percent decrease in the rate of substrate hydrolysis in the presence of inhibitor (VI) relative to the rate in its absence (VO). Comparison between VO and VI was made within the linear range for substrate hydrolysis. For screening, compounds were tested at 10, 1.0, and 0.1 μM. Compounds having 50% inhibition at 10 μM were considered active. […] The results were plotted as % inhibition versus log inhibitor concentration and the IC50 was calculated from linear regression of the data. Apparent second order rate constants were determined from analysis of reaction progress curves under pseudo-first order conditions. Each determination represents the means of three or more independent single cuvette analyses continually monitored via a Perkin-Elmer LS50B spectrofluorimeter. […]
where y is the product formed at time t. […] The apparent second order rate constant kapp was determined as Kobs /[I]. […]

The target of assay [2] is T2, thrombin (Homo sapiens, UniProt P00734).
T2 construct: purchased Sigma Chem. Co. T-7009
Description: Inhibition of thrombin. Particulars: 10 uM; for inhibition at 10 µM: read-out: Thrombin % I @ 10 uM.

Assay [3] deals with T3, α-chymotrypsin (Bos taurus, UniProt P00766).
T3 construct: purchased Sigma Chem. Co. C-3142
Description: Inhibition of α-chymotrypsin. Particulars: for inhibition at 10 µM: read-out: Chymotrypsin % I @ 10 uM. In outline:
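Enzyme added to inhibitor first, then reaction started with substrate; no calcium activation needed as enzyme is constitutively active. Fluorogenic substrate hydrolysis read every 5 min up to 30 min ([…]).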

In assay [4] the target is T4, cathepsin L (Homo sapiens, UniProt P07711).
T4 construct: purchased Calbiochem 219402
The experiment in a line: Inhibition of cathepsin L. Conditions: for IC50: Table II, read-out: Cat L IC50; for inhibition at 1 µM: read-out: Cat L % I @ 1 uM. The method, then:
(§1) Additionally,the order of reagents added to the plate was altered because both enzymes are constitutively active. Following inhibitor addition to the plates, appropriate 2× concentrated stock dilutions of the enzyme preparations were made in assay buffer and 100 μl added to each well. The assay was initiated by addition of 100 μl of 2× concentrated stock dilution of substrate in assay buffer.

The target in assay [5] is T5, cathepsin B (Homo sapiens, UniProt P07858).
T5 construct: purchased Calbiochem 219364
The experiment in a line: Inhibition of cathepsin B. Conditions: for inhibition at 1 µM: read-out: Cat B % I @ 1 uM; for IC50: read-out: Cat B IC50. As for the experimental part: as §1

Assay [6] concerns the target T1, Recombinant human calpain I. Description: Inhibition of calpain I activity.

This is an account of results in US5852007A, “Cysteine and serine protease inhibitors containing D-amino acid at the P2 position, methods of making same, and methods of using same” (priority 1997, dated 1998).

Read-outs that look alike come from different tables or passages of the source. Square brackets hold non-standard residues; d marks the D form. Peptide text beside a SMILES is read from it. * marks the point of attachment. ξ: configuration not given here. ξF = NC(Cc1ccccc1)C(=O)O; Bn = c1ccc(C*)cc1; Ms = CS(=O)(=O)*; CH2F = FC*

T4 sequence (P07711 114-288 limits assumed): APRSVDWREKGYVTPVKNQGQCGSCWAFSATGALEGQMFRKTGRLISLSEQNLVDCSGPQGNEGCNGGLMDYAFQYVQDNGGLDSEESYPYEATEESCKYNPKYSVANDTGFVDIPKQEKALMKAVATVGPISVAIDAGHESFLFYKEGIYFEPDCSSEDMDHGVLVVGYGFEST
T4 sequence (P07711 292-333 limits assumed): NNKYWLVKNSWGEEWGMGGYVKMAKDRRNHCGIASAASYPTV

Regarding `CS(=O)(=O)N[C@H](CSCc1ccccc1)C(=O)NC(Cc1ccccc1)C(=O)CF` (stereo partly drawn) [Compound 33, BnS--CH2 CH(NHS(=O)2 CH3)C(=O)-Phe--CH2] (Ms-[dC](Bn)-[ξF]-CH2F), the kinact/KI in assay [1] was found to be 26600 M⁻¹ s⁻¹. For the same compound, the inhibition at 10 µM in assay [2] (Table II) came out at 0%; in assay [3] (Table II, 10 uM), 14%.
Turning to `CS(=O)(=O)N[C@H](COCc1ccccc1)C(=O)NC(Cc1ccccc1)C(=O)CF` (stereo partly drawn) [Compound 34, BnO--CH2 CH(NHS(=O)2 CH3)C(=O)-Phe--CH2], the IC50 in assay [4] came out at 1800 nM. Also, the kinact/KI in assay [1] worked out at 21000 M⁻¹ s⁻¹. Further, the inhibition at 10 µM in assay [2] (Table II) is 0%; in assay [3] (Table II, 10 uM) it was 14%.
In the case of `O=C[C@H](Cc1ccccc1)NC(=O)[C@@H](Cc1ccccc1)NS(=O)(=O)c1cccc2cccnc12` [Compound 74], the inhibition at 1 µM in assay [4] (Table III, 1 uM) came to 100%; in assay [5] (Table III, 1 uM), 100%. In addition, the IC50 in assay [6] (Table III) came to 33 nM. In addition, the inhibition at 0.1 µM in assay [6] (Table III, 0.1 uM) was 83%. For the same compound, the inhibition at 10 µM came to 6% in assay [2] (Table III) and 13% in assay [3] (Table III, 10 uM).
Consider `CN(Cc1ccccc1)C(=O)C[C@@H](NS(C)(=O)=O)C(=O)N[C@H](C=O)Cc1ccccc1` [Compound 78], for which the inhibition at 1 µM in assay [4] (Table III, 1 uM) was 100%; in assay [5] (Table III, 1 uM), 100%. In addition, the IC50 in assay [5] (Table III) came to 6 nM; in assay [6] (Table III), 12 nM. Further, in assay [6] (Table III, 0.1 uM), the inhibition at 0.1 µM was found to be 94%. The inhibition at 10 µM in assay [2] (Table III) was determined as 0%; in assay [3] (Table III, 10 uM), 0%.
For `C[C@@H](NS(=O)(=O)c1ccccc1)C(=O)N[C@H](C=O)Cc1ccccc1` [Compound 104], the inhibition at 1 µM in assay [4] (Table III, 1 uM) is 97%; in assay [5] (Table III, 1 uM) it was 86%. The IC50 in assay [6] (Table III) was 93 nM. Further, in assay [6] (Table III, 0.1 uM), the inhibition at 0.1 µM is 45%. For the same compound, the inhibition at 10 µM in assay [2] (Table III) amounted to 7%; in assay [3] (Table III, 10 uM), 6%.
For `CS(=O)(=O)N[C@H](CC(=O)N1CCc2ccccc2C1)C(=O)NC(Cc1ccccc1)C(=O)CF` (stereo partly drawn) [Compound 20, THIQ-2-C(=O)CH2 CH(NHS(=O)2 CH3)C(=O)-Phe--CH2 F], the IC50 in assay [4] was determined as 1800 nM. For the same compound, in assay [1], the kinact/KI is 2800 M⁻¹ s⁻¹. Further, the inhibition at 10 µM is 0% in assay [2] (Table II) and 7% in assay [3] (Table II, 10 uM).
Regarding `CS(=O)(=O)N[C@H](CC(=O)N1CCc2ccccc2C1)C(=O)N[C@H](C=O)Cc1ccccc1` [Compound 14, 2-THIQ-C(=O)CH2 CH(NHS(=O)2 CH3)C(=O)-Phe--H], the IC50 in assay [4] was found to be 56 nM; in assay [5] (Table II), 145 nM; in assay [6] (Table II), 20 nM. The inhibition at 10 µM in assay [2] (Table II) was determined as 0%; in assay [3] (Table II, 10 uM) it was 11%.
With `CS(=O)(=O)NC(CCSCc1ccccc1)C(=O)N[C@H](C=O)Cc1ccccc1` (single isomer, unassigned) [Compound 108], in assay [4] (Table III, 1 uM), the “Cat L % I @ 1 uM” value amounted to 100%. In addition, the “Cat B % I @ 1 uM” value in assay [5] (Table III, 1 uM) is recorded as 96%. Besides, the IC50 in assay [6] (Table III) stood at 25 nM. Besides, in assay [6] (Table III, 0.1 uM), the “Calpain % I @ 0.1 uM” value was found to be 83%. For the same compound, the “Thrombin % I @ 10 uM” value in assay [2] (Table III) is recorded as 0%. Besides, the “Chymotrypsin % I @ 10 uM” value in assay [3] (Table III, 10 uM) turned out to be 0%.
For `CCS(=O)(=O)N[C@H](COCc1ccccc1)C(=O)N[C@H](C=O)Cc1ccccc1` [Compound 50], the inhibition at 1 µM in assay [4] (Table III, 1 uM) came to 98%; in assay [5] (Table III, 1 uM), 99%. For the same compound, the half-maximal inhibitory concentration (IC50) in assay [6] (Table III) turned out to be 12 nM. Further, in assay [6] (Table III, 0.1 uM), the inhibition at 0.1 µM came to 95%. Moreover, the inhibition at 10 µM in assay [2] (Table III) was 9%; in assay [3], 15%.
With `CS(=O)(=O)N[C@H](CS(=O)(=O)Cc1ccccc1)C(=O)N[C@H](C=O)Cc1ccccc1` [Compound 80], the inhibition at 1 µM in assay [4] (Table III, 1 uM) was determined as 100%; in assay [5] (Table III, 1 uM) it was 99%. Also, the IC50 is 46 nM in assay [5] (Table III) and 15 nM in assay [6] (Table III). Besides, in assay [6] (Table III, 0.1 uM), the inhibition at 0.1 µM was determined as 90%. Moreover, the inhibition at 10 µM in assay [2] (Table III) amounted to 4%; in assay [3] (Table III, 10 uM), 8%.
